The text below walks through data of US9828343B2, “Histone demethylase inhibitors” (Celgene Quanticel Research, Inc., priority 2012, dated 2017).

This test deals with JMJD2C (Homo sapiens (Human), UniProt Q9H3R0). In words: JMJD2C TR-FRET in vitro enzyme inhibition assay. As to conditions: 0.3 nM JMJD2C, H3K9me3-biotin peptide, 2 μM alpha-ketoglutaric acid. It counts as biochemical. From the text:
This assay determines the ability of a test compound to inhibit Jarid1A, Jarid1B, and JMJD2C demethylase activity. Baculovirus expressed Jarid1A (GenBank Accession #NM_001042603, AA1-1090) was purchased from BPS Bioscience (Cat#50110). Baculovirus expressed Jarid1B (GenBank Accession #NM_006618, AA 2-751) was purchased from BPS Bioscience (Cat #50121) or custom made by MolecularThroughput. Baculovirus-expressed JMJD2C (GenBank Accession #BC143571, AA 2-372) was purchased from BPS Bioscience (Cat#50105).
The ability of test compounds to inhibit the activity of JMJD2C was determined in 384-well plate format under the following reaction conditions: 0.3 nM JMJD2C, 300 nM H3K9me3-biotin labeled peptide (Anaspec cat #64360), 2 μM alpha-ketoglutaric acid in assay buffer of 50 mM HEPES, pH7.3, 0.005% Brij35, 0.5 mM TCEP, 0.2 mg/ml BSA, 50 μM sodium L-ascorbate, and 2 μM ammonium iron(II) sulfate. Reaction product was determined quantitatively by TR-FRET after the addition of detection reagent Phycolink Streptavidin-allophycocyanin (Prozyme) and Europium-anti-di-methylated histone H3 lysine 9 (H3K9me2) antibody (PerkinElmer) in the presence of 5 mM EDTA in LANCE detection buffer (PerkinElmer) at a final concentration of 50 nM and 1 nM, respectively. […]

Chain of JMJD2C (Q9H3R0 2-372): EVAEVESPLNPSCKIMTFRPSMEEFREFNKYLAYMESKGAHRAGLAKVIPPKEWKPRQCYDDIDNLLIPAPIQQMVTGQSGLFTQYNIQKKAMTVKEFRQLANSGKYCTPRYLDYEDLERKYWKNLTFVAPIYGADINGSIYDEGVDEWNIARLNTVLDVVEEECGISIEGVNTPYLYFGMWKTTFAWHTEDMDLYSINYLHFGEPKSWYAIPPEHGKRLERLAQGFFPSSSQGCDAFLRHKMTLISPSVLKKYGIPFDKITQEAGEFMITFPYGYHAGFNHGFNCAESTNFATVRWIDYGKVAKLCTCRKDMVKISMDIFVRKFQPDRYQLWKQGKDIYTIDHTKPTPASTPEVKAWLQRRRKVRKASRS

On to `O=C(O)c1ccncc1NCC1(O)CCCc2cc(Cl)ccc21` (centres unmarked) [Example 68, 3-{[(6-chloro-1-hydroxy-1,2,3,4-tetrahydronaphthalen-1-yl)methyl]amino}pyridine-4-carboxylic acid], for which the IC50 was in the range of 100 to 1000 nM.

“3-{[(6-fluoro-3,4-dihydro-2H-chromen-4-yl)methyl]amino}pyridine-4-carboxylic acid [Example 65]” gave an IC50 of under 100 nM.
